Laboratory results published in ChEMBL document CHEMBL4304765 (ACS Med Chem Lett, 2019).
Calls of active or inactive are those of the source.

Columns and labels:
[1] = target: Beta-1 adrenergic receptor (Homo sapiens, UniProt P08588); experiment: Binding affinity to beta1 adrenergic receptor (unknown origin) by radioligand binding assay
[2] = target: Beta-2 adrenergic receptor (Homo sapiens, UniProt P07550); experiment: Binding affinity to beta2 adrenergic receptor (unknown origin) by radioligand binding assay
[3] = Metabolic stability in Sprague-Dawley rat liver microsomes at 10 uM preincubated for 5 mins followed by NADPH addition and measured for 60 mins by HPLC analysis; format: ADME, Microsome; details: read-out: Stability
[4] = target: T1, Bifunctional epoxide hydrolase 2 (Homo sapiens, UniProt P34913); experiment: Inhibition of recombinant human full length soluble epoxide hydrolase (1 to 555 residues) expressed in Escherichia coli BL21(DE3) using non-fluorescent PHOME as substrate preincubated for 30 mins followed by substrate addition and measured after 30 mins by fluorescence based assay
T1 sequence (P34913 whole entry): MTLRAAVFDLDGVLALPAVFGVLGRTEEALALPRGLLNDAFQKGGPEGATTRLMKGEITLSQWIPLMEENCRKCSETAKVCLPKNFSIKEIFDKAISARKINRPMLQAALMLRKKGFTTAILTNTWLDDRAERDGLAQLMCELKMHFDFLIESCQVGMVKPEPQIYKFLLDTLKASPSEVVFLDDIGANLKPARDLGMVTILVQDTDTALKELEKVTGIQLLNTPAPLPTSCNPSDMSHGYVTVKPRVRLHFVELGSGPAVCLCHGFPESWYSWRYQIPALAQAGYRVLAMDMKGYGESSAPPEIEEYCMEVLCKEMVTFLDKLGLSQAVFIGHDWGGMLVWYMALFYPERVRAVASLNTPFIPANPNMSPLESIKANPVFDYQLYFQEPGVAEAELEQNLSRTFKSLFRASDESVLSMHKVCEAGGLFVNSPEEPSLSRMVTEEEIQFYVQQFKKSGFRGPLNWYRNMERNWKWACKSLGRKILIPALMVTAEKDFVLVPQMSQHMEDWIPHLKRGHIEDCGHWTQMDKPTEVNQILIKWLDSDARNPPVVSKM

[5] = target: T2, Bifunctional epoxide hydrolase 2 (Homo sapiens) (UniProt P34913)
T2 sequence (whole entry): T1 sequence (P34913 whole entry)
Description: Binding affinity to recombinant human C-terminal soluble epoxide hydrolase-hydrolase domain (222 to 555 residues) expressed in Escherichia coli BL21(DE3) assessed as change in melting temperature at 200 uM by SYPRO orange dye-based differential scanning fluorimetric analysis (Rvb = 57.0 +/- 0.0 degreeC)

[6] = system: Rattus norvegicus; experiment: Antiallodynic activity in streptozocin-induced Sprague-Dawley rat of diabetic neuropathy model assessed as increase in mechanical withdrawal threshold at 10 mg/kg administered via oral gavage and measured for 3 to 4 times at 1 min interval by von Frey assay; format: functional, organism-based

Row | Compound | Ki [1] [nM] | Ki [2] [nM] | remaining at 1 h, 10 µM [3] [%] | IC50 [4] | Tm [5] [°C] | Activity [6] | Activity [1] | Activity [2] | IC50 ([4]; read-out: IC50) [nM]
1 | CC(C)(C)NCC(O)COc1ccc(NC(=O)NC2CCCCC2)cc1 (configuration not stated) [TALINOLOL] | 240 | 900 | 86 |  |  |  |  |  | 
2 | CC(C)NCC(O)COc1cccc2ccccc12 (configuration not stated) [PROPRANOLOL] |  |  | 37 | Not Active | 56.3 |  |  |  | 
3 | CC(C)(C)N1CCOC(COc2ccc(NC(=O)NC3CCCCC3)cc2)C1 (configuration not stated) |  |  | 71 |  | 65.1 | Active | inactive | inactive | 77
